We go through 7 compounds from patent US11066630B2, “Device and method for analysis of tissue constructs” (The Johns Hopkins University, priority 2015, dated 2021).

The subject of assay [1] is ASM cells in lung-chip. The assay is described as follows: Cell rheology measurements using the lung-chip platform (frequency-domain OMTC). As to conditions: frequency-domain OMTC on lung-chip. The format is cell-based, human. The text has this: (§1) Magnetic twisting cytometry with optical detection was used to quantitatively assess dynamic changes in cell stiffness as an indicator of single-cell contraction or relaxation of HASM cells, as previously described. In brief, ferrimagnetic microbeads (4.5 μm in diameter) coated with synthetic Arg-Gly-Asp (RGD) containing peptide (American Peptide Company) bound to the cytoskeleton through cell surface integrin receptors were magnetized horizontally. Subsequently, a vertically aligned homogeneous magnetic field varying sinusoidally in time applied an oscillatory torque, leading to both a rotation and a pivoting displacement of the bead (FIG. 18B). Measurements were performed at a single frequency of 0.75 Hz or oscillatory frequencies between 10^−1 and 10^3 Hz for cell rheology measurements (FIG. 21). Lateral bead displacements in response to the resulting oscillatory torque were detected optically (in spatial resolution of ˜5 nm), and the ratio of specific torque to bead displacement was computed as the cell stiffness in units of Pascals (Pa) per nanometer. For drug-induced single-cell contraction or relaxation, changes in HASM stiffness were measured in real-time for the duration of 300 seconds. For each individual cell, the baseline stiffness was measured for the first 60 seconds, and after drug addition, the stiffness was measured continuously for the next 240 seconds.

The test system of assay [2] is ASM cells in lung-chip co-culture with airway epithelial cells. The experiment in a line: Lung-chip: ASM contraction after compressive stress on the epithelial layer (OMTC). Format: cell-based, human. The following applies: after 30 cmH2O compressive stress; 10 μM methacholine, followed by 1 μM PGE2. Here is the method:
The upper and lower layer of the microfluidic device were fabricated using standard soft lithography techniques by casting a flexible and optically transparent polydimethylsiloxane (PDMS) polymer on a mold and cross-linking at 80° C. for 2 hours. The mold was fabricated using optical lithography with an epoxy-based negative photoresist (SU8) that yields thick and robust structures. The two PDMS layers each had compartments with 5 mm width, 20 mm length, and 300 μm height, and around 100 support pillars with 200 μm diameter distributed across the compartments. The two compartments were separated by an optically-clear polycarbonate membrane (Sterlitech) with 5 μm diameter holes, allowing cells on both sides of the membranes to chemically interact. To construct the complete chip, first a PDMS layer and the polycarbonate membrane were exposed to an oxygen plasma (30 W, 700 mTorr, 30 sec) to chemically activate their surfaces. Immediately after the plasma treatment, the PDMS surface was silanized using 5 μl of an APTES solution (1% 3-aminopropyltriethoxysilane in water) and the polycarbonate membrane was allowed to bond to it. After 2 hours of bonding at room temperature, the process was repeated to bond the second PDMS compartment to the other side of the polycarbonate membrane. […]

Assay [3] deals with primary ASM cells from asthmatic and non-asthmatic donors. The assay is described as follows: HASM stiffness measurements: drug-induced single-cell contraction or relaxation, asthmatic vs non-asthmatic ASM cells. The format is cell-based, human. Here is the method: (§2) Primary human epithelial and smooth muscle cells were harvested from the proximal airways (first through third order bronchi) of donor lungs unsuitable for transplantation (Table I) in accordance with the Institutional Review Boards at the University of Pennsylvania. Primary normal human bronchial epithelial (NHBE) cells were grown in collagen-coated flasks (GIBCO) using serum-free BEGM Bronchial Epithelial Cell Growth Medium™ with BulletKit™ Supplements (Lonza) and subsequently trypsinized and seeded onto porous polycarbonate membranes (either inside microfluidic devices or on transwell inserts) at 100,000 cells/cm^2. The polycarbonate membranes were coated with collagen type I (30 μg/ml; GIBCO) at 37° C. for 18 h before cell seeding. After NHBE cells reached confluence (within 3-5 days), the apical medium was removed and the basal medium was replaced with differentiation medium (PneumaCult-ALI™ Medium and Supplements, StemCell Technologies). The NHBE cells were maintained at the ALI for 2-3 weeks, until they differentiated into a pseudostratified layer. Excess mucus on the air side was washed away with warm PBS weekly. After NHBE differentiation in the microfluidic chips, primary HASM cells were seeded into the bottom compartment. Approximately 18 h before the live-cell micromechanical experiments using MTC, the culture medium of HASM cells was changed to serum-free minimal media (1:1 vol/vol mixture of DMEM Dulbecco's modified Eagle's medium and Ham's F-12 medium, supplemented with insulin […]), and cells were maintained at 37° C. in humidified air containing 5% CO2. The overnight media was then washed and replaced with fresh minimal media before the experiments. This minimal media procedure was applied to NHBE cells as well before compressive-stress application. For experiments involving Celecoxib or Verteporfin (Sigma Aldrich), NHBE cells were pre-treated with the drugs before the second washing step, as the presence of Celecoxib in the infranatant affected HASM mechanics (FIGS. 19A-B), and Verteporfin in the infranatant would have phototoxic effects on HASM cells during the live-cell micromechanical measurements. Since Verteporfin is a photosensitizer, treatment of NHBE cells was always performed in the dark.
as §1, with “Subsequently, a vertically aligned homogeneous magnetic field varying sinusoidally in time applied an oscillatory torque, leading to both a rotation and a pivoting displacement of the bead (FIG. 18B). Measurements were performed at a single frequency of 0.75 Hz or oscillatory frequencies between 10^−1 and 10^3 Hz for cell rheology measurements (FIG. 21).” left out

Assay [4] has as its system primary human airway epithelial cells (NHBE); readout on HASM cells. The assay is described as follows: ASM cell contraction (OMTC stiffness) in response to infranatant from drug-treated epithelial cells exposed to compressive stress. Format: cell-based. As to conditions: epithelial cells treated with drug; 30 cmH2O, 0h vs 3h pressure. Here is the method:
(§3) Primary human epithelial and smooth muscle cells were harvested from the proximal airways (first through third order bronchi) of donor lungs unsuitable for transplantation (Table I) in accordance with the Institutional Review Boards at the University of Pennsylvania. Primary normal human bronchial epithelial (NHBE) cells were grown in collagen-coated flasks (GIBCO) using serum-free BEGM Bronchial Epithelial Cell Growth Medium™ with BulletKit™ Supplements (Lonza) and subsequently trypsinized and seeded onto porous polycarbonate membranes (either inside microfluidic devices or on transwell inserts) at 100,000 cells/cm^2. The polycarbonate membranes were coated with collagen type I (30 μg/ml; GIBCO) at 37° C. for 18 h before cell seeding. After NHBE cells reached confluence (within 3-5 days), the apical medium was removed and the basal medium was replaced with differentiation medium (PneumaCult-ALI™ Medium and Supplements, StemCell Technologies). The NHBE cells were maintained at the ALI for 2-3 weeks, until they differentiated into a pseudostratified layer. Excess mucus on the air side was washed away with warm PBS weekly. […]
Magnetic twisting cytometry with optical detection was used to quantitatively assess dynamic changes in cell stiffness as an indicator of single-cell contraction or relaxation of HASM cells, as previously described. […]

Assay [5] deals with airway epithelial cells. The experiment in a line: Gene expression analysis (TaqMan real-time PCR) in airway epithelial cells. Format: cell-based, human. Here is the method:
as §2, with “For experiments involving Celecoxib or Verteporfin (Sigma Aldrich), NHBE cells were pre-treated with the drugs before the second washing step, as the presence of Celecoxib in the infranatant affected HASM mechanics (FIGS. 19A-B), and Verteporfin in the infranatant would have phototoxic effects on HASM cells during the live-cell micromechanical measurements. Since Verteporfin is a photosensitizer, treatment of NHBE cells was always performed in the dark.” left out

For assay [6], the system named is NHBE cells. The experiment in a line: PGE2 content of epithelial infranatant (EIA kit). The format is cell-based, human. As to conditions: epithelial cells with or without compressive stress. Here is the method: as §3, with “seeding.” for “seeding. After NHBE cells reached confluence (within 3-5 days), the apical medium was removed and the basal medium was replaced with differentiation medium (PneumaCult-ALI™ Medium and Supplements, StemCell Technologies). The NHBE cells were maintained at the ALI for 2-3 weeks, until they differentiated into a pseudostratified layer. Excess mucus on the air side was washed away with warm PBS weekly.”
Media from the basal compartments (infranatant) were collected from control samples or after application of 30 cmH2O compressive stress on NHBE cells, and were assayed for the presence of PGE2 using a commercial EIA kit (DetectX™ Prostaglandin E2 High Sensitivity Immunoassay Kit, Arbor Assays, Ann Arbor, Mich.) following the manufacturer's instructions. The absorbance in the samples was measured at 450 nm with a microplate reader (Molecular Devices, Sunnyvale, Calif.). […]

Turning to `NCCc1c[nH]cn1` [Histamine, histamine], in assay [1], the ASM cell stiffness result is “increases ASM cell stiffness” and the “Stress relaxation of ASM cells” value is recorded as “more difficult (slower) for the cells to relax stress”.

As for `CCCCC[C@H](O)/C=C/[C@H]1[C@H](O)CC(=O)[C@@H]1C/C=C\CCCC(=O)O` [PGE2], in assay [2], the “ASM contraction in lung-chip after pressure turned off” value is listed as “did not lead to relaxation”. In addition, the “Stiffness change (contraction or relaxation), asthmatic compared with non-asthmatic ASM cells” value (shortened to “Stiffness change … with non-asthmatic ASM cells”) in assay [3] is on record as “asthmatic ASM cells relaxed more”. In addition, the “ASM response to agonist” value in assay [3] (different doses and different patient samples) is “consistently caused ASM relaxation”.

For `CCCCC[C@H](O)/C=C/[C@@H]1[C@@H](C/C=C\CCCC(=O)O)[C@@H](O)C[C@H]1O` [PGF2α], the “Stiffness change … with non-asthmatic ASM cells” value in assay [3] is “did not yield a difference in response between asthmatic and non-asthmatic ASM cells”.

In the case of `C=C1[C@@H](C)[C@H]2[C@H](Cc3ccccc3)NC(=O)[C@]23[C@H](OC(C)=O)/C=C/[C@@](C)(O)C(=O)[C@@H](C)C/C=C/[C@H]3[C@@H]1O` [cytochalasin D], in assay [1], the ASM cell stiffness result is recorded as “reduces ASM cell stiffness” and the “Stress relaxation of ASM cells” value is “easier (faster) for the cells to relax stress”.

Consider `CC(C)NCC(O)c1ccc(O)c(O)c1` (stereo not shown) [isoproterenol], for which the “Stiffness change … with non-asthmatic ASM cells” value in assay [3] is reported as “less relaxation in asthmatic ASM cells”.

Take `CC(=O)OC(C)C[N+](C)(C)C` (stereo not shown) [methacholine]: the “ASM contraction in lung-chip after pressure turned off” value in assay [2] is given as “only slightly increased ASM contraction”. Moreover, in assay [3], the “Stiffness change … with non-asthmatic ASM cells” value is “stronger contraction in asthmatic ASM cells”.

Consider Verteporfin, for which the “Effect of compressive stress on epithelial cells, read as ASM cell contraction in response to 0h and 3h-pressure epithelial samples” value in assay [4] is reported as “abrogated the effects of compressive stress”. In addition, the “COX2 (PTGS2) mRNA expression” value in assay [5] (airway epithelial cells) is reported as “downregulated COX2”. Besides, the “Regulation of COX1 and COX2 mRNA by compressive stress” value in assay [5] (airway epithelial cells, compressive stress) was “prohibited the downregulation of COX1 and upregulation of COX2 by compressive stress”. In assay [5] (epithelial cells), the “Upregulation of CTGF mRNA by compressive stress” value is reported as “this upregulation was abrogated”. The “PGE2 content of the infranatants” value in assay [6] was “less PGE2 production and suppression of the effects of compressive stress”.
